The values that follow come from patent US9326513B2, “Fungicidal compositions” (Syngenta Participations AG, priority 2011, dated 2016).

The structures appear in SMILES notation.

Data set [1] has as its system Septoria tritici. The data set can be described thus: Septoria tritici on wheat, preventive treatment. It counts as in vivo. As to conditions: solo, wheat Riband, 1 day preventive, 18 days after application.
Another data set deals with Sphaerotheca fuliginea. The data set is described as follows: Sphaerotheca fuliginea (powdery mildew) on cucumber, preventive treatment. It counts as in vivo. Conditions: solo, 2 days preventive, 10 days after application. An excerpt:
In the following Tables 'Activity (%)' means the assessed experimental activity (% disease control in this test when compared to untreated control leaf disks under the same conditions, which show extensive disease development) and “P” is the expected value calculated (expected) activity according to the COLBY formula (see above). The column headed 'S?' indicates whether or not synergy was observed, with 'y' meaning that synergy was observed. Sphaerotheca fuliqinea (Powdery Mildew) on Cucumber, Preventive Treatment […] Cucumber plants with unfolded cotyledons were sprayed with a roomsprayer and 40 ml/4 plants spray volume with the test compounds, either solo or in […] shown in the table below. 2 days after application the plants were infested with spores of Sphaerotheca fuliginea.

The test system of data set [2] is Septoria tritici. The data set is described as follows: Septoria tritici (leaf blotch), YBG microtiter plate, photometric growth inhibition after 6 days. Conditions: Zymoseptoria tritici, 144 h, read-out: Activity. It counts as cell-based. The text has this: In the following Tables ‘Activity (%)’ means the assessed experimental activity (% disease control in this test when compared to untreated control leaf disks under the same conditions, which show extensive disease development) and “P” is the expected value calculated (expected) activity according to the COLBY formula (see above). The column headed ‘S?’ indicates whether or not synergy was observed, with ‘y’ meaning that synergy was observed.
Septoria tritici (Leaf Blotch):
After placing solutions of the test compounds (containing 0.2% DMSO) into a microtiter plate (96-well format), an equal amount of the nutrient broth (YBG) was added to each of the well. Finally the fungal spore solution was added. The test plates were incubated at 20° C. The inhibition of growth was determined photometrically after 6 days and the activity calculated in relation to untreated control.

The subject of data set [3] is Blumeria graminis f. sp. tritici (Erysiphe graminis f. sp. tritici). The data set is described as follows: Blumeria graminis f. sp. tritici / wheat / leaf disc preventative (powdery mildew on wheat). It counts as in vivo. As to conditions: foliar, compared to untreated control leaf disks, read-out: disease control. In outline: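 Preventative leaf-disc test: compound (200 ppm) was sprayed onto cv. Kanzler wheat segments, which were dusted with conidia from infected plants 1 day after application. After incubation at 20° C and 60% rh, disease control relative to untreated segments was rated 6-8 days after application.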

Data set [4] concerns Puccinia recondita f. sp. tritici. The data set can be described thus: Puccinia recondita f. sp. tritici / wheat / leaf disc preventative (brown rust). Conditions: foliar, compared to untreated control leaf disks, read-out: disease control. It counts as in vivo. The text has this:
Puccinia recondita f. sp. tritici/Wheat/Leaf Disc Preventative (Brown Rust) Wheat leaf segments cv. Kanzler were placed on agar in multiwell plates (24-well format) and sprayed with the formulated test compound diluted in water. The leaf disks were inoculated with a spore suspension of the fungus 1 day after application.

The next data set concerns Pyrenophora teres. The data set is described as follows: Pyrenophora teres / barley / leaf disc preventative (net blotch). It counts as in vivo. As to conditions: foliar, compared to untreated control leaf disks, read-out: disease control. The text has this: Pyrenophora teres/Barley/Leaf Disc Preventative (Net Blotch) Barley leaf segments cv. Hasso were placed on agar in a multiwell plate (24-well format) and sprayed with the formulated test compound diluted in water. The leaf segments were inoculated with a spore suspension of the fungus 2 days after application.

Data set [5] deals with Puccinia recondita f. sp. tritici. The data set can be described thus: Puccinia recondita f. sp. tritici / wheat / leaf disc curative (brown rust). As to conditions: foliar, compared to untreated control leaf disks, read-out: disease control. It counts as in vivo. How it is done: Puccinia recondita f. sp. tritici/Wheat/Leaf Disc Curative (Brown Rust) Wheat leaf segments cv. Kanzler are placed on agar in multiwell plates (24-well format). The leaf segments are inoculated with a spore suspension of the fungus. Plates were stored in darkness at 19° C. and 75% rh. The formulated test compound diluted in water was applied 1 day after inoculation.

Regarding `OC(c1cccnc1)c1c(-c2ccc(Cl)cc2F)noc1-c1ccc(F)cc1F` (stereo not drawn) [(VII), [3-(4-chloro-2-fluoro-phenyl)-5-(2,4-difluoro-phenyl)-isoxazol-4-yl]-pyridin-3-yl-methanol, reference compound], the Activity with Septoria tritici [1] (3 g a.i./ha) is on record as 0%; in the data set on Septoria tritici [1] (9 g a.i./ha) it was 20%; in the data set on Septoria tritici [1] (27 g a.i./ha), 96%.
Take `CSC(=O)c1cccc2nnsc12` [Acibenzolar-s-methyl]: the Activity in the data set with Sphaerotheca fuliginea (rate 0.6 ppm) was 0%; with Sphaerotheca fuliginea (rate 2 ppm) it was 0%; in the data set with Sphaerotheca fuliginea (rate 6 ppm), 0%; with Sphaerotheca fuliginea (rate 20 ppm), 4%.
Regarding `CC1COC(Cn2cncn2)(c2ccc(Oc3ccc(Cl)cc3)cc2Cl)O1` (stereo not drawn) [Difenoconazole], the inhibition of growth at 0.15625 ppm in the data set on Septoria tritici [2] came to 48%. The Activity with Septoria tritici [1] (0.33 g a.i./ha) is listed as 0%; with Septoria tritici [1] (1 g a.i./ha) it was 0%; in the data set with Septoria tritici [1] (3 g a.i./ha), 0%; in the data set with Septoria tritici [1] (9 g a.i./ha), 3%; in the data set on Septoria tritici [1] (27 g a.i./ha), 5%.
By melting point is commonly meant the temperature, or range, at which the solid turns liquid. With `CCN(C)/C=N/c1cc(Br)c(OCc2ccnc(Cl)c2)nc1C` [Q.111], the melting point fell in the range of 57 to 59 °C. The pest or weed control at 200 ppm in data set [3] is at least 50%. The pest or weed control at 200 ppm in data set [4] is at least 50%. Moreover, the pest or weed control at 200 ppm in the data set with Pyrenophora teres is at least 50%. The pest or weed control at 200 ppm in data set [5] was at least 50%.
The compound `CCN(C)/C=N/c1cc(Br)c(OCc2cccc(C)c2)nc1C` [Q.128] came in with a melting point of 60 to 62 °C. For the same compound, in data set [3], the pest or weed control at 200 ppm is at least 50%. Moreover, in data set [4], the pest or weed control at 200 ppm was at least 50%. Moreover, the pest or weed control at 200 ppm in the data set with Pyrenophora teres is at least 50%. Besides, the pest or weed control at 200 ppm in data set [5] was at least 50%.
With `CCN(C)/C=N/c1cc(Br)c(OCCc2ccc(F)cc2)nc1C` [Q.129], the melting point lay within 46 to 48 °C. Further, in data set [3], the pest or weed control at 200 ppm was at least 50%. In data set [4], the pest or weed control at 200 ppm was at least 50%. Further, in the data set with Pyrenophora teres, the pest or weed control at 200 ppm was at least 50%. In data set [5], the pest or weed control at 200 ppm was at least 50%.
As to `CCN(C)/C=N/c1cc(Br)c(OC2CCCc3ccc(-c4cccc(F)c4)cc32)nc1C` (stereo not drawn) [Q.137], the melting point fell in the range of 43 to 45 °C. Further, in data set [4], the pest or weed control at 200 ppm is at least 50%.
With `CCN(C)/C=N/c1cc(Br)c(OCc2cccc(C(F)(F)F)c2)nc1C` [Q.153], the melting point was in the range of 43 to 44 °C. Besides, the pest or weed control at 200 ppm in data set [3] is at least 50%. In addition, the pest or weed control at 200 ppm in data set [4] was at least 50%. In addition, the pest or weed control at 200 ppm in the data set with Pyrenophora teres is at least 50%. In addition, in data set [5], the pest or weed control at 200 ppm is at least 50%.
`CCN(C)/C=N/c1cc(Br)c(OCc2cc(C)ccc2C)nc1C` [Q.154] came in with a melting point of 53 to 57 °C. In data set [3], the pest or weed control at 200 ppm was at least 50%. The pest or weed control at 200 ppm in data set [4] is at least 50%. Besides, the pest or weed control at 200 ppm in the data set on Pyrenophora teres was at least 50%. The pest or weed control at 200 ppm in data set [5] is at least 50%.
As for `C#Cc1cccc(COc2nc(C)c(/N=C/N(C)CC)cc2Br)c1` [Q.195], the melting point is 52 to 54 °C. For the same compound, the pest or weed control at 200 ppm in data set [3] is at least 50%. Besides, in data set [4], the pest or weed control at 200 ppm was at least 50%. Also, in the data set on Pyrenophora teres, the pest or weed control at 200 ppm was at least 50%. For the same compound, the pest or weed control at 200 ppm in data set [5] is at least 50%.
As to `CCN(C)/C=N/c1cc(Br)c(OCc2cc(C)cc(C)c2)nc1C` [Q.207], the melting point lay in the range of 57 to 58 °C. In data set [3], the pest or weed control at 200 ppm was at least 50%. Also, the pest or weed control at 200 ppm in data set [4] is at least 50%. Moreover, the pest or weed control at 200 ppm with Pyrenophora teres is at least 50%. Further, the pest or weed control at 200 ppm in data set [5] was at least 50%.
For `CCN(C)/C=N/c1cc(Br)c(OCc2cc(C)ns2)nc1C` [Q.235], the melting point was 55 to 57 °C. The pest or weed control at 200 ppm in data set [3] was at least 50%. Further, the pest or weed control at 200 ppm in data set [4] is at least 50%. For the same compound, in the data set on Pyrenophora teres, the pest or weed control at 200 ppm was at least 50%. The pest or weed control at 200 ppm in data set [5] is at least 50%.
`CCN(C)/C=N/c1cc(Br)c(OCc2cccc(NC(=O)OC(C)(C)C)c2)nc1C` [Q.236] came in with a melting point of 40 to 42 °C. For the same compound, the pest or weed control at 200 ppm in data set [4] is at least 50%. Further, the pest or weed control at 200 ppm in the data set on Pyrenophora teres was at least 50%. Besides, the pest or weed control at 200 ppm in data set [5] is at least 50%.
The compound `CCN(C)/C=N/c1cc(Br)c(OC(C)c2ccccc2-c2ccccc2)nc1C` (stereo not drawn) [Q.295] came in with a melting point of 59 to 62 °C. Besides, in data set [4], the pest or weed control at 200 ppm is at least 50%.
Turning to `CCN(C)/C=N/c1cc(Br)c(OCc2ccccc2F)nc1C` [Q.298], the melting point was in the range of 57 to 61 °C. In addition, the pest or weed control at 200 ppm in data set [3] was at least 50%. For the same compound, the pest or weed control at 200 ppm in data set [4] was at least 50%. Besides, the pest or weed control at 200 ppm in the data set on Pyrenophora teres is at least 50%. In addition, in data set [5], the pest or weed control at 200 ppm is at least 50%.
Take `CCN(C)/C=N/c1cc(Br)c(OCc2ccccc2Cl)nc1C` [Q.300]: the melting point is 53 to 56 °C. Further, in data set [3], the pest or weed control at 200 ppm is at least 50%. Moreover, the pest or weed control at 200 ppm in data set [4] was at least 50%. For the same compound, the pest or weed control at 200 ppm in data set [5] was at least 50%.
Take `CCN(C)/C=N/c1cc(Br)c(OCc2ccc(F)cc2C)nc1C` [Q.320]: the melting point fell in the range of 27 to 30 °C. In addition, the pest or weed control at 200 ppm in data set [3] is at least 50%. The pest or weed control at 200 ppm in data set [4] was at least 50%. Moreover, in the data set with Pyrenophora teres, the pest or weed control at 200 ppm is at least 50%. Besides, the pest or weed control at 200 ppm in data set [5] is at least 50%.
The compound `CCN(C)/C=N/c1cc(Br)c(OCc2cccc(F)c2C)nc1C` [Q.322] displayed a melting point of 67 to 68 °C. For the same compound, the pest or weed control at 200 ppm in data set [3] is at least 50%. The pest or weed control at 200 ppm in data set [4] was at least 50%. For the same compound, in the data set with Pyrenophora teres, the pest or weed control at 200 ppm is at least 50%. Moreover, the pest or weed control at 200 ppm in data set [5] is at least 50%.
The compound `CCN(C)/C=N/c1cc(Br)c(OCc2c(C)cccc2C)nc1C` [Q.325] displayed a melting point of 56 to 57 °C. In addition, the pest or weed control at 200 ppm in data set [3] is at least 50%. Moreover, the pest or weed control at 200 ppm in data set [4] is at least 50%. Moreover, in data set [5], the pest or weed control at 200 ppm was at least 50%.
For `CCN(C)/C=N/c1cc(Br)c(OCc2c(F)cccc2F)nc1C` [Q.326], the melting point lay in the range of 61 to 62 °C. Moreover, the pest or weed control at 200 ppm in data set [3] was at least 50%. For the same compound, the pest or weed control at 200 ppm in data set [4] was at least 50%. In addition, the pest or weed control at 200 ppm in the data set with Pyrenophora teres was at least 50%. In data set [5], the pest or weed control at 200 ppm was at least 50%.
For the compound `CCN(C)/C=N/c1cc(Br)c(OCCc2cc(C)cc(C)c2)nc1C` [Q.422], the melting point lay within 61 to 63 °C.
